Source: patent US4178380A, “Benzopyrancarboxamides” (Shell Oil Company, priority 1978, dated 1979)

How the values were obtained:
swine adipose tissue = assay: inhibition of lipogenesis (incorporation of radioactive glucose into lipid) in pig adipose tissue slices; format: cell-based, pig (swine); conditions: Sus scrofa, glucose-U-14C, 100 micrograms per milliliter, 37° C., 2 hours, vs control, read-out: Percent Inhibition of lipogenesis
Source text: (§1) The manner in which they cause this effect is not known with certainty; it is believed that they interfere with the synthesis of fatty acids in the tissues. Their effectiveness for this purpose has been ascertained by immersing samples of mammalian liver or adipose tissue in a liquid medium containing radioactive glucose and the test chemical for a period of time, then isolating the lipid from the treated tissue and determining the incorporation of the radioactive carbon into the lipid by means of scintillation counting techniques. These tests were conducted with both liver and adipose tissues, because in some animals the primary site of lipogenesis appears to be liver tissue, while in others it appears to be adipose tissue. The test animals were pigs, sheep, rabbits, cats and dogs.
Described in more detail, the tests were conducted according to the following general procedure:
Tissue slices (200 milligrams for liver; 150 milligrams for adipose tissue) were incubated, at 37° C. for 2 hours with shaking in 3 milliliters of Krebs-Ringer bicarbonate solution containing one-half the normal calcium ion concentration, 60 micromoles of glucose, 0.5 micro-Curie of glucose-U-^14 C, 300 microunits of insulin, and 5% dimethyl sulfoxide (DMSO). The test compounds were added as a solution or a suspension in DMSO and were present at a concentration of 100 micrograms per milliliter of the incubation mixture.
The incubation was terminated by addition of 0.25 milliliter of 1 N sulfuric acid. The incubation mixture was extracted with a total of 25 milliliters of chloroform:methanol (2:1, v/v). The extracts were washed according to Folch et al. (J. Biol. Chem., 226, 497-509, (1957)), air dried, and counted in a liquid scintillation counter with 15 milliliters of counting fluid (two parts toluene containing 0.4% w/v New England Nuclear Omnifluor: 1 part Triton X-100). The tests were conducted in triplicate and were accompanied by control tests in which all ingredients,proportions and conditions were the same except that no test compound was included. From the data obtained was calculated the percent inhibition of lipid synthesis by the test compound in each case.
Compound 2 was tested with respect to all of the animals. The other six compounds were tested only with respect to the pig.
From these and other tests, it was established that in pigs there is little lipogenic activity in the liver tissue. From these and other tests, it also has been established that swine adipose tissue utilizes glucose for lipogenesis, and to be the major site of fatty acid synthesis. The data obtained from the tests using adipose tissue and glucose are set out in Table 1, as the percent inhibition of lipogenesis compared to the results obtained in the control tests wherein only the test compound was omitted.

sheep liver = assay: inhibition of glucose incorporation into lipids in sheep liver slices; format: cell-based; conditions: 100 micrograms per milliliter, 2 hours
Source text: as §1
(§2) Described in more detail, the tests were conducted according to the following general procedure: […]
(§3) The incubation was terminated by addition of 0.25 milliliter of 1 N sulfuric acid. […] The extracts were washed according to Folch et al. (J. Biol. Chem., 226, 497-509, (1957)), air dried, and counted in a liquid scintillation counter with 15 milliliters of counting fluid (two parts toluene containing 0.4% w/v New England Nuclear Omnifluor: 1 part Triton X-100). […] From the data obtained was calculated the percent inhibition of lipid synthesis by the test compound in each case. […]

sheep adipose tissue = assay: inhibition of glucose incorporation into lipids in sheep adipose tissue slices; format: cell-based; conditions: 100 micrograms per milliliter, 2 hours
Source text: as §1, §2, §3

[1] = system: lipogenesis in swine adipose tissue; assay: in vivo test of inhibition of lipogenesis in swine, compound in feed, adipose tissue biopsy samples; design: species or system pig (swine); conditions: young, growing pigs, in feed approximately 50 milligrams per kilogram per day for seven days
Experimental: The effect of compound 2 on inhibition of lipogenesis in swine was confirmed by an in vivo test in which Compound 2 was included in the feed given to young, growing pigs for seven days, at a dosage of approximately 50 milligrams of Compound 2 per kilogram of the pig's body weight per day. Adipose tissue biopsy samples were taken at days 0, 6, 7 and 13 (one week off the drug) and the effect of the test compound on lipogenesis was determined using tissue slices prepared from the biopsy samples, by the procedure used in the in vitro tests.

dog adipose tissue = assay: inhibition of glucose utilization in dog adipose tissue slices; format: cell-based; conditions: 100 micrograms per milliliter, 2 hours
Source text: as §1, §2, §3

cat liver = assay: inhibition of glucose utilization in cat liver slices; format: cell-based; conditions: 100 micrograms per milliliter, 2 hours
Source text: as §1, §2, §3

cat adipose tissue = assay: inhibition of glucose utilization in cat adipose tissue slices; format: cell-based; conditions: 100 micrograms per milliliter, 2 hours, result in words
Source text: as §1, §2, §3

rabbit adipose tissue = assay: inhibition of glucose incorporation in rabbit adipose tissue slices; format: cell-based; conditions: 100 micrograms per milliliter, 2 hours
Source text: as §1, §2, §3

rabbit liver = assay: inhibition of glucose incorporation in rabbit liver slices; format: cell-based; conditions: 100 micrograms per milliliter, 2 hours
Source text: as §1, §2, §3

C=CCNC(=O)[C@@H]1C[C@H](O)c2cc(Cl)ccc2O1 (relative stereo) [Compound 7, 6-Chloro-4-hydroxy-N-(2-propenyl)-2H-1-benzopyran-2-carboxamide (cis)]
inhibition at 100 µg/mL (swine adipose tissue): 55%

C=CCNC(=O)C1CCc2cc(Cl)ccc2O1 (stereo not drawn) [Compound 1, 6-Chloro-3,4-dihydro-N-(2-propenyl)-2H-1-benzopyran-2-carboxamide]
inhibition at 100 µg/mL (swine adipose tissue): 59%

C=CCNC(=O)C1COc2ccccc2C1 (stereo not drawn) [Compound 2, 3,4-Dihydro-N-(2-propenyl)-2H-1-benzopyran-3-carboxamide]
inhibition of glucose incorporation in the liver (sheep liver): 32% | inhibition of glucose incorporation in adipose tissue (sheep adipose tissue): 36% | symptom of toxicity [1]: No symptom of toxicity due to the test compound was noted | effect on lipogenesis in vivo ([1]; day 13 (one week off the drug)): significantly reduced lipogenesis | inhibition at 100 µg/mL (swine adipose tissue): 83% | inhibition of glucose utilization in adipose tissue (dog adipose tissue): 73% | inhibition of glucose utilization in the liver (cat liver): 26% | inhibition of glucose utilization in adipose tissue (cat adipose tissue): did not inhibit glucose utilization | inhibition of glucose incorporation in adipose tissue (rabbit adipose tissue): 22% | inhibition of glucose incorporation into liver (rabbit liver): 9%

C=CCNC(=O)C1CCc2ccccc2O1 (stereo not drawn) [Compound 3, 3,4-Dihydro-N-(2-propenyl)-2H-1-benzopyran-2-carboxamide]
inhibition at 100 µg/mL (swine adipose tissue): 72%

C=CCNC(=O)C1CCc2cc(-c3ccccc3)ccc2O1 (stereo not drawn) [Compound 4, 3,4-Dihydro-6-phenyl-N-(2-propenyl)-2H-1-benzopyran-2-carboxamide]
inhibition at 100 µg/mL (swine adipose tissue): 76%

C=CCNC(=O)C1CCc2cc(C3CCCCC3)ccc2O1 (stereo not drawn) [Compound 5, 6-Cyclohexyl-3,4-dihydro-N-(2-propenyl)-2H-1-benzopyran-2-carboxamide]
inhibition at 100 µg/mL (swine adipose tissue): 40%

C=CCNC(=O)C1COc2ccc(Cl)cc2C1 (stereo not drawn) [Compound 6, 6-Chloro-3,4-dihydro-N-(2-propenyl)-2H-1-benzopyran-3-carboxamide]
inhibition at 100 µg/mL (swine adipose tissue): 67%

C=CCNC(=O)C1CCc2cc(Oc3ccccc3)ccc2O1 (stereo not drawn) [Compound 8, 3,4-Dihydro-6-phenoxy-N-(2-propenyl)-2H-1-benzopyran-2-carboxamide]
inhibition at 100 µg/mL (swine adipose tissue): 64%

C=CCNC(=O)C1CCc2cc(C)ccc2O1 (stereo not drawn) [Compound 9, 3,4-Dihydro-6-methyl-N-(2-propenyl)-2H-1-benzopyran-2-carboxamide]
inhibition at 100 µg/mL (swine adipose tissue): 70%
